Results reported in patent publication US10351575B2, “Bicyclic urea, thiourea, guanidine and cyanoguanidine compounds useful for the treatment of pain” (Array BioPharma Inc., priority 2012, dated 2019).
Where a name gives a salt, the structure may show the parent alone.

Target: His-tagged recombinant human TrkA (Homo sapiens (Human), UniProt P04629)
Assay: TrkA LanthaScreen Eu Kinase Binding Assay
Conditions: averaged IC50; TR-FRET binding, 60 min, 22° C.; read-out: TrkA Enzyme IC50
In short: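 Three-fold compound dilutions (2% DMSO final) were incubated 60 min at 22° C. with 5 nM His-TrkA cytoplasmic domain, tracer 236 (4 nM), biotinylated anti-His (2 nM) and europium streptavidin (2 nM) in MOPS pH 7.5 buffer. Emission ratio 665/615 gave percent of control; four-parameter fit yielded IC50.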

Chain of His-tagged recombinant human TrkA (P04629 440-796): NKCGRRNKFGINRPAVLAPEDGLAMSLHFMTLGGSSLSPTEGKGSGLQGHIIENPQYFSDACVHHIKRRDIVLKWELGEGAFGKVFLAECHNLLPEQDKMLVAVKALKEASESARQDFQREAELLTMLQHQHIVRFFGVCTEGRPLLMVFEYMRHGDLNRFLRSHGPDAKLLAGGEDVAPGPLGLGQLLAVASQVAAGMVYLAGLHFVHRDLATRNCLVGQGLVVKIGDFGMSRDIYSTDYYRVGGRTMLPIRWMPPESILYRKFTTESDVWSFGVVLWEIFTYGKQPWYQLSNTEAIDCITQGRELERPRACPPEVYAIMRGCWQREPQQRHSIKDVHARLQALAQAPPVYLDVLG

IC50	SMILES
< 100 nM	Cc1c(OCCN2CCOCC2)nn(-c2ccccc2)c1NC(=O)N[C@@H]1c2ccccc2C(C)(C)C[C@H]1O [Example 133, 1-((1R,2R)-2-hydroxy-4,4-dimethyl-1,2,3,4-tetrahydronaphthalen-1-yl)-3-(4-methyl-3-(2-morpholinoethoxy)-1-phenyl-1H-pyrazol-5-yl)urea]
< 100 nM	Cc1c(OCCN(C)C)nn(-c2ccccc2)c1NC(=O)N[C@@H]1c2ccccc2C(C)(C)C[C@H]1O [Example 134, 1-(3-(2-(dimethylamino)ethoxy)-4-methyl-1-phenyl-1H-pyrazol-5-yl)-3-((1R,2R)-2-hydroxy-4,4-dimethyl-1,2,3,4-tetrahydronaphthalen-1-yl)urea]
1000 to 3000 nM	COc1nn(-c2ccccc2)c(NC(=O)N[C@@H]2c3ccccc3CC[C@@H]2O)c1C [Example 135, 1-((1R,2S)-2-hydroxy-1,2,3,4-tetrahydronaphthalen-1-yl)-3-(3-methoxy-4-methyl-1-phenyl-1H-pyrazol-5-yl)urea]
< 100 nM	Cc1c(-c2cnn(C)c2)nn(-c2ccccc2)c1NC(=O)NC1CN(CC(F)(F)F)C2(CC2)c2ccccc21 (stereo not shown) [Example 136, 1-(1′,4-dimethyl-1-phenyl-1H,1′H-[3,4′-bipyrazol]-5-yl)-3-(2′-(2,2,2-trifluoroethyl)-3′,4′-dihydro-2′H-spiro[cyclopropane-1,1′-isoquinolin]-4′-yl)urea trifluoroacetate]
< 100 nM	Cc1c(-c2cnn(C)c2)nn(-c2ccccc2)c1NC(=O)N[C@@H]1c2ccccc2C2(CC2)[C@H]1O [Example 137, 1-(1′,4-dimethyl-1-phenyl-1H,1′H-[3,4′-bipyrazol]-5-yl)-3-((2′R,3′R)-2′-hydroxy-2′,3′-dihydrospiro[cyclopropane-1,1′-inden]-3′-yl)urea]
< 100 nM	O=C(Nc1c(Cl)c(OC[C@H]2CNCCO2)nn1-c1ccccc1)N[C@@H]1c2ccccc2C2(CC2)[C@H]1O [Example 140, 1-(4-chloro-3-((R)-morpholin-2-ylmethoxy)-1-phenyl-1H-pyrazol-5-yl)-3-((2′R,3′R)-2′-hydroxy-2′,3′-dihydrospiro[cyclopropane-1,1′-inden]-3′-yl)urea]
< 100 nM	CN1CCO[C@@H](COc2nn(-c3ccccc3)c(NC(=O)N[C@@H]3c4ccccc4C4(CC4)[C@H]3O)c2Cl)C1 [Example 141, 1-(4-chloro-3-(((R)-4-methylmorpholin-2-yl)methoxy)-1-phenyl-1H-pyrazol-5-yl)-3-((2′R,3′R)-2′-hydroxy-2′,3′-dihydrospiro[cyclopropane-1,1′-inden]-3′-yl)urea]
< 100 nM	Cc1c(OC[C@H]2CN(C(=O)OC(C)(C)C)CCO2)nn(-c2ccccc2)c1NC(=O)N[C@@H]1c2ccccc2C(C)(C)C[C@H]1O [Example 143, (R)-tert-butyl 2-(((5-(3-(trans-2-hydroxy-4,4-dimethyl-1,2,3,4-tetrahydronaphthalen-1-yl)ureido)-4-methyl-1-phenyl-1H-pyrazol-3-yl)oxy)methyl)morpholine-4-carboxylate]
< 100 nM	COc1nn(-c2ccccc2)c(NC(=O)N[C@@H]2c3ccccc3C(C)(C)C[C@H]2O)c1C [Example 144, 1-((1R,2R)-2-hydroxy-4,4-dimethyl-1,2,3,4-tetrahydronaphthalen-1-yl)-3-(3-methoxy-4-methyl-1-phenyl-1H-pyrazol-5-yl)urea]
100 to 1000 nM	Cn1nc(-c2ccccc2)cc1NC(=O)N[C@@H]1c2ccccc2C(C)(C)C[C@H]1O [Example 145, 1-((1R,2R)-2-hydroxy-4,4-dimethyl-1,2,3,4-tetrahydronaphthalen-1-yl)-3-(1-methyl-3-phenyl-1H-pyrazol-5-yl)urea]
< 100 nM	CCOc1nn(-c2ccccc2)c(NC(=O)N[C@@H]2c3ccccc3C(C)(C)C[C@H]2O)c1C [Example 146, 1-(3-ethoxy-4-methyl-1-phenyl-1H-pyrazol-5-yl)-3-((1R,2R)-2-hydroxy-4,4-dimethyl-1,2,3,4-tetrahydronaphthalen-1-yl)urea]
< 100 nM	COCCOc1nn(-c2ccccc2)c(NC(=O)N[C@@H]2c3ccccc3C(C)(C)C[C@H]2O)c1C [Example 147, 1-((1R,2R)-2-hydroxy-4,4-dimethyl-1,2,3,4-tetrahydronaphthalen-1-yl)-3-(3-(2-methoxyethoxy)-4-methyl-1-phenyl-1H-pyrazol-5-yl)urea]
< 100 nM	Cc1c(CCO)nn(-c2ccccc2)c1NC(=O)N[C@@H]1c2ccccc2C(C)(C)C[C@H]1O [Example 148, 1-((1R,2R)-2-hydroxy-4,4-dimethyl-1,2,3,4-tetrahydronaphthalen-1-yl)-3-(3-(2-hydroxyethyl)-4-methyl-1-phenyl-1H-pyrazol-5-yl)urea]
< 100 nM	Cc1c(OCCO)nn(-c2ccccc2)c1NC(=O)N[C@@H]1c2ccccc2C(C)(C)C[C@H]1O [Example 149, 1-((1R,2R)-2-hydroxy-4,4-dimethyl-1,2,3,4-tetrahydronaphthalen-1-yl)-3-(3-(2-hydroxyethoxy)-4-methyl-1-phenyl-1H-pyrazol-5-yl)urea]
< 100 nM	Cc1c(OC[C@H]2CNCCO2)nn(-c2ccccc2)c1NC(=O)N[C@@H]1c2ccccc2C(C)(C)C[C@H]1O [Example 150, 1-((1R,2R)-2-hydroxy-4,4-dimethyl-1,2,3,4-tetrahydronaphthalen-1-yl)-3-(4-methyl-3-((R)-morpholin-2-ylmethoxy)-1-phenyl-1H-pyrazol-5-yl)urea]
< 100 nM	Cc1c(OC[C@H]2CN(C(C)C)CCO2)nn(-c2ccccc2)c1NC(=O)N[C@@H]1c2ccccc2C(C)(C)C[C@H]1O [Example 151, 1-((1R,2R)-2-hydroxy-4,4-dimethyl-1,2,3,4-tetrahydronaphthalen-1-yl)-3-(3-(((R)-4-isopropylmorpholin-2-yl)methoxy)-4-methyl-1-phenyl-1H-pyrazol-5-yl)urea]
< 100 nM	COc1nn(-c2ccccc2)c(NC(=O)N[C@@H]2c3ccccc3C(C)(C)[C@@H](OC)[C@H]2O)c1C [Example 153, 1-((r-1,t-2,t-3)-2-hydroxy-3-methoxy-4,4-dimethyl 1,2,3,4-tetrahydronaphthalen-1-yl)-3-(3-methoxy-4-methyl-1-phenyl-1H-pyrazol-5-yl)urea]
< 100 nM	CO[C@H]1[C@@H](O)[C@H](NC(=O)Nc2c(C)c(-c3ccc(=O)n(C)c3)nn2-c2ccccc2)c2ccccc2C1(C)C [Example 154, 1-((r-1,t-2,t-3)-2-hydroxy-3-methoxy-4,4-dimethyl-1,2,3,4-tetrahydronaphthalen-1-yl)-3-(4-methyl-3-(1-methyl-6-oxo-1,6-dihydropyridin-3-yl)-1-phenyl-1H-pyrazol-5-yl)urea]
< 100 nM	CO[C@H]1[C@@H](O)[C@H](NC(=O)Nc2c(C)c(-c3cnc(C)nc3)nn2-c2ccccc2)c2ccccc2C1(C)C [Example 155, 1-((r-1,t-2,t-3)-2-hydroxy-3-methoxy-4,4-dimethyl-1,2,3,4-tetrahydronaphthalen-1-yl)-3-(4-methyl-3-(2-methylpyrimidin-5-yl)-1-phenyl-1H-pyrazol-5-yl)urea]
< 100 nM	CNC(=O)c1nn(-c2ccccc2)c(NC(=O)N[C@@H]2c3ccccc3C(C)(C)[C@H](OC)[C@H]2O)c1C [Example 156, 5-(3-((r-1,t-2,c-3)-2-hydroxy-3-methoxy-4,4-dimethyl-1,2,3,4-tetrahydronaphthalen-1-yl)ureido)-N,4-dimethyl-1-phenyl-1H-pyrazole-3-carboxamide]
< 100 nM	CO[C@@H]1[C@@H](O)[C@H](NC(=O)Nc2c(C)c(-c3cnn(C)c3)nn2-c2ccccc2)c2ccccc2C1(C)C [Example 157, 1-(1′,4-dimethyl-1-phenyl-1H,1′H-[3,4′-bipyrazol]-5-yl)-3-((r-1,t-2,c-3)-2-hydroxy-3-methoxy-4,4-dimethyl-1,2,3,4-tetrahydronaphthalen-1-yl)urea]
< 100 nM	CO[C@@H]1[C@@H](O)[C@H](NC(=O)Nc2c(C)c(OCC3CCN(C)CC3)nn2-c2ccccc2)c2ccccc2C1(C)C [Example 158, 1-((r-1,t-2,c-3)-2-hydroxy-3-methoxy-4,4-dimethyl-1,2,3,4-tetrahydronaphthalen-1-yl)-3-(4-methyl-3-((1-methylpiperidin-4-yl)methoxy)-1-phenyl-1H-pyrazol-5-yl)urea]
